{"source": "patent US7632870B2", "about": "“Composition based on substituted 1,3-diphenylprop-2-en-1-one derivatives, preparation and uses thereof” (Genfit, priority 2002, dated 2009)", "key": {"[1]": {"system": "LDL", "assay": "Protection against LDL oxidation by copper (conjugated diene formation)", "format": "biochemical", "settings": "compound at 10^-4M", "procedure": "LDL oxidation is an important alteration and plays a predominant role in the establishment and development of atherosclerosis (Jurgens, Hoff et al. 1987). […] Unless otherwise indicated, the reagents were from Sigma (St Quentin, France).\nLDL were prepared according to the method described by Lebeau et al. (Lebeau, Furman et al. 2000).\nThe solutions of test compounds were prepared at 10^−2 M concentration in bicarbonate buffer (pH 9) and diluted in PBS to obtain final concentrations ranging from 0.1 to 100 μM for a total ethanol concentration of 1% (V/V).\nPrior to oxidation, EDTA was removed from the LDL preparation by dialysis. Oxidation then took place at 30° C. by addition of 100 μl of 16.6 μM CuSO4 solution to 160 μL of LDL (125 μg protein/ml) and 20 μl of a test compound solution. The formation of dienes, the species under observation, was followed by measuring optical density at 234 nm in the samples treated with the compounds but in the presence or absence of copper. Optical density at 234 nm was measured every 10 minutes for 8 hours in a thermostated spectrophotometer (Tecan Ultra 380). The analyses were performed in triplicate. The compounds were considered to have antioxidant activity when they induced a longer lag phase and reduced the rate of oxidation and the amount of dienes formed in comparison with the control sample. […] FIGS. 1, 2 and 3 give an example of the results illustrating the antioxidant properties of compounds 2 and 5."}, "[2]": {"biological_target": "T1, PPARα (Homo sapiens, UniProt Q07869)", "T1 construct": "expressed in transfected cells; host or cells: RK13 cells", "T1 sequence (Q07869 239-466 limits assumed)": "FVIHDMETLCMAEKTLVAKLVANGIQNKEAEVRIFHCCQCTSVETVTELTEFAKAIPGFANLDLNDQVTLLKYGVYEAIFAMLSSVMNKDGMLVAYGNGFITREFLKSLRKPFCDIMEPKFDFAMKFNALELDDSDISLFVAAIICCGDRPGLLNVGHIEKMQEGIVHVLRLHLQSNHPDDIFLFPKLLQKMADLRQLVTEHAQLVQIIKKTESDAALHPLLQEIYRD", "assay": "PPARα/Gal4 transactivation system in RK13 cells (luciferase reporter)", "format": "cell-based, rabbit", "settings": "24 hours", "procedure": "RK13 cells were incubated with the different compounds at concentrations of 10, 30 and 100 μM or 1, 10 and 100 μM for 24 hours. The results are expressed as the induction factor (luminescent signal relative to untreated cells) after the different treatments.\nPPAR activation was tested in vitro in RK13 fibroblast cell lines by measuring the transcriptional activity of chimeras composed of the DNA binding domain of the yeast gal4 transcription factor and the ligand binding domain of the different PPARs. These latter results were then confirmed in cell lines according to the following protocols:\nRK13 cells were from ECACC (Porton Down, UK) and were grown in DMEM medium supplemented with 10% (V/N) fetal calf serum, 100 U/ml penicillin (Gibco, Paisley, UK) and 2 mM L-glutamine (Gibco, Paisley, UK). The culture medium was changed every two days. Cells were kept at 37° C. in a humidified 95% air/5% CO2 atmosphere.\nThe plasmids pG5TkpGL3, pRL-CMV, pGal4-hPPRAα, pGal4-hPPRAγ and pGal4-φ have been described by Raspe, Madsen et al. (1999). The pGal4-mPPRAα and pGal4-hPPRAγ constructs were obtained by cloning into the pGal4-φ vector of PCR-amplified DNA fragments corresponding to the DEF domains of the human PPARα and PPRAγ nuclear receptors.\n[…] At the end of the experiment, the cells were lysed (Gibco, Paisley, UK) and luciferase activity was determined with a Dual-Luciferase™ Reporter Assay System kit (Promega, Madison, Wis., USA) according to the supplier's instructions as previously described (Raspe, Madsen et al. 1999)."}, "[3]": {"system": "Apo E2/E2 transgenic mice", "assay": "Effects on triglyceride and cholesterol metabolism in vivo", "procedure": "Apo E2/E2 transgenic mice were kept on a 12-hour light/dark cycle at a constant temperature of 20±3° C. After a 1 week acclimation, the mice were weighed and divided into groups of 6 animals selected so that body weight would be uniformly distributed. The test compounds were suspended in carboxymethylcellulose and administered by intragastric gavage at the indicated doses, once a day for 7 or 8 days. Animals had access to food and water ad libitum. At the end of the experiment the animals were weighed and sacrificed under anesthesia. Blood was collected on EDTA. Plasma was prepared by centrifugation at 3000 rpm for 20 minutes. Liver samples were taken and stored frozen in liquid nitrogen for subsequent analysis.\nSerum lipid concentrations (total cholesterol and free cholesterol, triglycerides and phospholipids) were determined by a colorimetric assay (Boehringer, Mannheim, Germany) according to the supplier's instructions. Serum concentrations of apolipoproteins AI, AII and CIII were determined as previously described (Raspe et al. J. Lipid Res. 40, 2099-2110, 1999, Asset G et al., Lipids, 34, 39-44, 1999)."}}, "data": [{"smiles": "CC(C)(Oc1ccc(C(=O)/C=C/c2cc(C(C)(C)C)c(O)c(C(C)(C)C)c2)c(O)c1)C(=O)O", "note": "[Compound 2, 1-[2-hydroxy-4-carboxydimethylmethyloxyphenyl]-3-[3.5-ditertbutyl-4-hydroxyphenyl]prop-2-en-1-one]", "values": [{"measurement": "lag phase of conjugated diene formation", "setting": "[1]; FIG. 1-1, copper alone 111 minutes", "result": "more than 480 minutes"}, {"measurement": "rate of conjugated diene formation", "setting": "[1]; FIG. 1-2, copper alone 2", "result": "not measurable because too low"}, {"measurement": "maximum amount of conjugated dienes formed", "setting": "[1]; FIG. 1-3, copper alone 348", "result": "54.4 nmol per mg of LDL"}, {"measurement": "decrease in conjugated diene formation", "setting": "[1]; FIG. 1-3, versus copper alone", "result": 84, "unit": "%"}]}, {"smiles": "COc1ccccc1C(=O)/C=C/c1cc(C)c(OC(C)(C)C(=O)O)c(C)c1", "note": "[Compound 31, 1-[2-methoxyphenyl]-3-[3,5-dimethyl-4-carboxydimethylmethyloxyphenyl]prop-2-en-1-one]", "values": [{"measurement": "Induction factor (luminescent signal relative to untreated cells)", "setting": "[2]; 1 μM", "result": 3.77}, {"measurement": "Induction factor (luminescent signal relative to untreated cells)", "setting": "[2]; 100 μM", "result": 1.21}]}, {"smiles": "COc1cc(Cl)ccc1C(=O)/C=C/c1cc(C)c(OC(C)(C)C(=O)O)c(C)c1", "note": "[Compound 37, 1-[2-methyloxy-4-chlorophenyl]-3-[3,5-dimethyl-4-carboxydimethylmethyloxyphenyl]prop-2-en-1-one]", "values": [{"measurement": "Induction factor (luminescent signal relative to untreated cells)", "setting": "[2]; 1 μM", "result": 24.55}, {"measurement": "Induction factor (luminescent signal relative to untreated cells)", "setting": "[2]; 10 μM", "result": 27}, {"measurement": "Induction factor (luminescent signal relative to untreated cells)", "setting": "[2]; 10 μM, listed as Cp37", "result": 27.83}, {"measurement": "Induction factor (luminescent signal relative to untreated cells)", "setting": "[2]; 100 μM", "result": 0.02}]}, {"smiles": "CC(C)(Oc1ccc(C(=O)/C=C/c2cc(Br)c(O)c(Br)c2)c(O)c1)C(=O)O", "note": "[Compound 8, 1-[2-hydroxy-4-carboxydimethylmethyloxyphenyl]-3-[3.5-dibromo-4-hydroxyphenyl]prop-2-en-1-one]", "values": [{"measurement": "Induction factor (luminescent signal relative to untreated cells)", "setting": "[2]; 10 μM", "result": 0.62}, {"measurement": "Induction factor (luminescent signal relative to untreated cells)", "setting": "[2]; 30 μM", "result": 1.27}, {"measurement": "Induction factor (luminescent signal relative to untreated cells)", "setting": "[2]; 100 μM", "result": 10}, {"measurement": "Induction factor (luminescent signal relative to untreated cells)", "setting": "[2]; 100 μM, listed as Cp8", "result": 9.98}]}, {"smiles": "CC(C)(Oc1ccc(C(=O)/C=C/c2ccc(Cl)cc2)c(O)c1)C(=O)O", "note": "[Compound 18, 1-[2-hydroxy-4-carboxydimethylmethyloxyphenyl]-3-[4-chlorophenyil] prop-2-en-1-one]", "values": [{"measurement": "lag phase of conjugated diene formation", "setting": "[1]; FIG. 1-4, copper alone 178 minutes", "result": 241, "unit": "min"}, {"measurement": "rate of conjugated diene formation", "setting": "[1]; FIG. 1-5, copper alone 1.6", "result": "1.4 nmol/min/mg of LDL"}, {"measurement": "maximum amount of conjugated dienes formed", "setting": "[1]; FIG. 1-6, copper alone 353", "result": "305 nmol per mg of LDL"}]}, {"smiles": "Cc1cc(/C=C/C(=O)c2ccc(Br)cc2)cc(C)c1OC(C)(C)C(=O)O", "note": "[Compound 41, 1-[4-bromophenyl]-3-[3,5-dimethyl-4-carboxydimethylmethyloxyphenyl]prop-2-en-1-one]", "values": [{"measurement": "triglycerides in large sized lipoparticles (exclusion chromatography)", "setting": "[3]; 50 mg/kg/day for 8 days, FIG. 3-11", "result": "decrease"}, {"measurement": "cholesterol in large sized lipoparticles (exclusion chromatography)", "setting": "[3]; 50 mg/kg/day for 8 days, FIG. 3-12", "result": "decrease"}, {"measurement": "Induction factor (luminescent signal relative to untreated cells)", "setting": "[2]; 1 μM", "result": 34.61}, {"measurement": "Induction factor (luminescent signal relative to untreated cells)", "setting": "[2]; 10 μM", "result": 31}, {"measurement": "Induction factor (luminescent signal relative to untreated cells)", "setting": "[2]; 10 μM, listed as Cp41", "result": 31.18}, {"measurement": "Induction factor (luminescent signal relative to untreated cells)", "setting": "[2]; 100 μM", "result": 3.39}]}, {"smiles": "Cc1cc(/C=C/C(=O)c2ccccc2O)cc(C)c1OC(C)(C)C(=O)O", "note": "[Compound 11, 1-[2-hydroxyphenyl]-3-[3,5-dimethyl-4-carboxydimethylmethyloxyphenyl]prop-2-en-1-one]", "values": [{"measurement": "Induction factor (luminescent signal relative to untreated cells)", "setting": "[2]; 1 μM", "result": 1.20}, {"measurement": "Induction factor (luminescent signal relative to untreated cells)", "setting": "[2]; 10 μM", "result": 1.39}, {"measurement": "Induction factor (luminescent signal relative to untreated cells)", "setting": "[2]; 100 μM, listed as Cp11", "result": 10.19}]}, {"smiles": "CCCCCCCc1ccc(C(=O)/C=C/c2cc(C)c(OC(C)(C)C(=O)OC(C)(C)C)c(C)c2)cc1", "note": "[Compound 38, 1-[4-heptylphenyl]-3-[3,5-dimethyl-4-tertbutyloxycarbonyldimethylmethyloxyphenyl]prop-2-en-1-one]", "values": [{"measurement": "Induction factor (luminescent signal relative to untreated cells)", "setting": "[2]; 1 μM", "result": 14.70}, {"measurement": "Induction factor (luminescent signal relative to untreated cells)", "setting": "[2]; 10 μM", "result": 22}, {"measurement": "Induction factor (luminescent signal relative to untreated cells)", "setting": "[2]; 10 μM, listed as Cp38", "result": 22.22}, {"measurement": "Induction factor (luminescent signal relative to untreated cells)", "setting": "[2]; 100 μM", "result": 0.311}]}, {"smiles": "CC(C)(Oc1ccc(/C=C/C(=O)c2ccccc2O)cc1)C(=O)O", "note": "[Compound 4, 1-[2-hydroxyhenyl]-3-[4-carboxydimethylmethyloxyphenyl]pron-2-en-1-one]", "values": [{"measurement": "Induction factor (luminescent signal relative to untreated cells)", "setting": "[2]; 10 μM", "result": 4}, {"measurement": "Induction factor (luminescent signal relative to untreated cells)", "setting": "[2]; 10 μM, listed as Cp4", "result": 3.99}, {"measurement": "Induction factor (luminescent signal relative to untreated cells)", "setting": "[2]; 30 μM", "result": 22}, {"measurement": "Induction factor (luminescent signal relative to untreated cells)", "setting": "[2]; 30 μM, listed as Cp4", "result": 22.15}, {"measurement": "Induction factor (luminescent signal relative to untreated cells)", "setting": "[2]; 100 μM", "result": 60}, {"measurement": "Induction factor (luminescent signal relative to untreated cells)", "setting": "[2]; 100 μM, listed as Cp4", "result": 61.07}]}, {"smiles": "Cc1cc(/C=C/C(=O)c2ccc(Br)cc2O)cc(C)c1OC(C)(C)C(=O)O", "note": "[Compound 25, 1-[2-hydroxy-4-bromophenyl]-3-[3,5-dimethyl-4-carboxydimethylmethyloxyphenyl]prop-2-en-1-one]", "values": [{"measurement": "Induction factor (luminescent signal relative to untreated cells)", "setting": "[2]; 1 μM", "result": 13.48}, {"measurement": "Induction factor (luminescent signal relative to untreated cells)", "setting": "[2]; 10 μM", "result": 21.03}, {"measurement": "Induction factor (luminescent signal relative to untreated cells)", "setting": "[2]; 100 μM", "result": 7.01}]}, {"smiles": "Cc1cc(/C=C/C(=O)c2ccc(Cl)cc2O)cc(C)c1OC(C)(C)C(=O)O", "note": "[Compound 7, 1-[2-hydroxy-4-chlorophenyl]-3-[3,5-dimethyl-4-carboxydimethylmethyloxyphenyl]prop-2-en-1-one]", "values": [{"measurement": "triglycerides in large sized lipoparticles (exclusion chromatography)", "setting": "[3]; gavage 200 mg/kg for 7 days, FIG. 3-3", "result": "decreased"}, {"measurement": "cholesterol in large sized lipoparticles (exclusion chromatography)", "setting": "[3]; gavage 200 mg/kg for 7 days, FIG. 3-4", "result": "decreased"}, {"measurement": "Induction factor (luminescent signal relative to untreated cells)", "setting": "[2]; 10 μM", "result": 36.48}, {"measurement": "Induction factor (luminescent signal relative to untreated cells)", "setting": "[2]; 30 μM", "result": 50.37}, {"measurement": "Induction factor (luminescent signal relative to untreated cells)", "setting": "[2]; 100 μM, listed as Cp7", "result": 37.84}]}]}
